{
  "source": "patent US20260027226A1",
  "about": "(Pheon Therapeutics Ltd, priority 2022, published 2026)",
  "key": {"[1]": {"assay": "Comparative repeat-dose rat toxicity study", "assay_type": "in vivo", "conditions": "DAR 8 on Trastuzumab backbone, 20 or 60 mg/kg; for tolerability: IV once every 3 weeks, two doses"}, "[2]": {"assay": "Control incubation in buffer without S9", "assay_type": "in vitro ADME", "protocol": "The control incubations include each ADC without the addition of S9."}, "[3]": {"tested_on": "linear double-stranded TyrT fragment", "assay": "DNA cross-linking assay", "assay_type": "biochemical", "conditions": "overnight incubation at 37° C., 10 μM to 0.1 nM", "method": "After overnight incubation, the samples were mixed with 7 μL loading solution (80% formamide containing 10 mM EDTA, 10 mM NaOH, 0.1% bromophenol blue) and incubated at 65° C. for 5 min. Control 1 (C1) for native double-stranded DNA consisted of 1.5 μL labelled DNA, 1.5 μL 10 mM Tris-HCl, pH 7.5 containing 0.1 mM EDTA and 7 μL 1× loading dye. Control 2 (C2) for denatured native single-stranded DNA was composed of 1.5 μL labelled DNA, 1.5 μL 10 mM Tris-HCl, pH 7.5 containing 0.1 mM EDTA which was incubated at 65° C. for 5 min. Control 3 (C3) for native double-stranded DNA consisted of 1.5 μL labelled DNA, 1.5 μL 10 mM Tris-HCl, pH 7.5 containing 0.1 mM EDTA and 7 μL SSB. Control 4 (C4) for denatured native single-stranded DNA was composed of 1.5 μL labelled DNA, 1.5 μL 10 mM Tris-HCl, pH 7.5 containing 0.1 mM EDTA and 7 μL SSB which was incubated at 65° C. for 5 min. Separation was performed on a 7.5% denaturing polyacrylamide gel (20 cm long, 0.3 mm thick) at 500V for about 4 h until the dye reached the bottom of the gel. The gel plates were then separated, the gels fixed by immersing in 10% (v/v) acetic acid, followed by transfer to Whatmann 3 MM paper and drying under vacuum at 80° C. […]\nThe ability of 26 to cross-link DNA was evaluated using an assay involving a linear double-stranded TyrT fragment (FIG. 17). […]"}, "HexA DNA fragment": {"tested_on": "HexA DNA fragment", "assay": "DNA footprinting", "assay_type": "binding", "conditions": "for DNA-binding site sequence: X any base, W adenine or thymine", "method": "Footprinting reactions were performed as using previously described methods using the DNA fragments HexA and HexB, which together contain all 64 symmetrical hexanucleotide sequences, and MS1 that contains all possible […] tetranucleotide sequences. The DNA fragments were obtained by cutting the parent plasmids with HindIII and SacI (for HexA and MS1) or EcoRI and PstI (for HexB), and were labelled at the “-end of the HindIII or EcoRI sites with [α-^32P]dATP using reverse transcriptase or exo− Klenow fragment. After gel purification, the radiolabelled DNA was dissolved in 10 mM Tris-HCl pH 7.5 containing 0.1 mM EDTA, at a concentration of about 10 c.p.s per μL as determined on a hand held Geiger counter. 1.5 μL of radiolabelled DNA was mixed with 1.5 μL ligand that had been freshly diluted in 10 mM Tris-HCl pH 7.5, containing 10 mM NaCl. The complexes were left to equilibrate for at least 12 hours before digesting with 2 μL dNase I (final concentration about 0.01 units/mL). The reactions were stopped after 1 minute by adding 4 μL of formamide containing 10 mM EDTA and bromophenol blue (0.1% w/v). The samples were then heated at 100° C. for 3 minutes before loading onto 8% denaturing polyacrylamide gels containing 8 M urea. Gels were fixed in 10% acetic acid, transferred to 3 MM paper, dried and exposed to a phosphor screen overnight, before analysing with a Typhoon phosphorimager\nThe DNA sequence selectivity profile of the molecules was investigated using a modification of a previously established DNA footprinting assay. Following an overnight incubation of the ligand-DNA complexes, the mixture was mixed with strand separation buffer containing 10 mM EDTA, 10 mM NaOH, 0.1% bromophenol blue, 80% formamide and incubated at 100° C. for 3 min. The mixture was then immediately cooled on ice and run on an 8% denaturing gel. […] The possible adducts formed within the HexA sequences are shown in FIGS. 20 and 21, respectively."}, "[4]": {"conditions": "cited from earlier work"}, "[5]": {"assay": "Buffer without S9 (50 mM Na-acetate, pH 5.0)", "conditions": "37° C., up to 24 h"}, "[6]": {"assay": "Pooled liver S9 fraction, 50 mM Na-acetate, pH 5.0", "conditions": "37° C., up to 24 h"}, "Papain": {"tested_on": "Papain", "assay": "Papain (a Cathepsin B surrogate)", "conditions": "up to 96 hours"}},
  "note": "Entries after “also recorded” stand apart in the source; their conditions may differ.",
  "data": [
    {"compound": "CC[C@@]1(O)C(=O)OCc2c1cc1n(c2=O)Cc2c-1nc1cc(F)c(C)c3c1c2[C@@H](NC(=O)[C@H](C)NC(=O)[C@@H](NC(=O)CCOCCOCCOCCOCCOCCOCCOCCOCCNC(=O)CCN1C(=O)C=CC1=O)C(C)C)CC3", "note": "[Compound 30, 1-(3-(2,5-Dioxo-2,5-dihydro-1H-pyrrol-1-yl)propanamido)-N-((2S)-1-(((2S)-1-(((1S,9S)-9-ethyl-5-fluoro-9-hydroxy-4-methyl-10,13-dioxo-2,3,9,10,12,13,13a,14-octahydro-1H-benzo[de]pyrano[″,″:5,6]indeno[1,2-b]quinolin-1-yl)amino)-1-oxopropan-2-yl)amino)-3-methyl-1-oxobutan-2-yl)-3,6,9,12,15,18,21,24-octaoxaheptacosan-27-amide]", "values": [
      {"measurement": "changes in hemopoietic system / red cell parameters", "setting": "[1]", "value": "negligible effects"},
      {"measurement": "tolerability", "setting": "[1]", "value": "well tolerated"},
      {"measurement": "LC/MS peak area of released payload (exatecan; 4NH2-exatecan; DXd; DM1)", "setting": "[2]; Buffer without S9, 180 min", "value": "26,179"},
      {"measurement": "LC/MS peak area of released payload (exatecan; 4NH2-exatecan; DXd; DM1)", "setting": "[2]; Buffer without S9, 360 min", "value": "51,267"},
      {"measurement": "LC/MS peak area of released payload (exatecan; 4NH2-exatecan; DXd; DM1)", "setting": "[2]; Buffer without S9, 1440 min", "value": "59,452"}
    ]},
    {"compound": "COc1cc2c(cc1OCCCC(=O)Nc1cc(C(=O)Nc3ccc(-c4cc(C(=O)Nc5ccc(N)cc5)n(C)c4)cc3)n(C)c1)N=C[C@@H]1CCCCN1C2=O", "note": "[Formula 26, (S)—N-(4-aminophenyl)-4-(4-(4-(4-((2-methoxy-12-oxo-6a,7,8,9,10,12-hexahydrobenzo[e]pyrido[1,2-a][1,4]diazepin-3-yl)oxy)butanamido)-1-methyl-1H-pyrrol-2-carboxamido)phenyl)-1-methyl-1H-pyrrol-2-carboxamide]", "values": [
      {"measurement": "DNA interstrand cross-linking", "setting": "[3]", "value": "Cross-links are not detectable at any concentration"},
      {"measurement": "preferred binding sites in HexA", "setting": "HexA DNA fragment; DNase I footprinting", "value": "only five preferred sites"},
      {"measurement": "DNA-binding site sequence", "setting": "HexA DNA fragment", "value": "XGXWWWW"}
    ]},
    {"compound": "C=CCOC(=O)N1c2cc(OCCCC(=O)Nc3cc(C(=O)Nc4ccc(NC(=O)C(F)(F)F)cc4)n(C)c3)c(OC)cc2C(=O)N2CCCC[C@H]2C1OC1CCCCO1", "note": "(stereo partly drawn) [Formula 17, Allyl (6aS)-2-methoxy-3-(4-((1-methyl-5-((4-(2,2,2-trifluoroacetamido)phenyl)carbamoyl)-1H-pyrrol-3-yl)amino)-4-oxobutoxy)-12-oxo-6-((tetrahydro-2H-pyran-2-yl)oxy)-6,6a,7,8,9,10-hexahydrobenzo[e]pyrido[1,2-a][1,4]diazepine-5(12H)-carboxylate]", "values": [
      {"measurement": "DNA-binding site sequence", "setting": "HexA DNA fragment", "value": "XGXWWWW"}
    ]},
    {"compound": "COc1cc2c(cc1OCCCC(=O)Nc1cc(C(=O)Nc3ccc(N)cc3)n(C)c1)N=C[C@@H]1CCCCN1C2=O", "note": "[Formula 19, (S)—N-(4-Aminophenyl)-4-(4-((2-methoxy-12-oxo-6a,7,8,9,10,12-hexahydrobenzo[e]pyrido[1,2-a][1,4]diazepin-3-yl)oxy)butanamido)-1-methyl-1H-pyrrol-2-carboxamide]", "values": [
      {"measurement": "DNA interstrand cross-linking", "setting": "[3]", "value": "incapable of cross-linking DNA"}
    ]},
    {"compound": "CC[C@@]1(O)C(=O)OCc2c1cc1n(c2=O)Cc2c-1nc1cc(F)c(C)c3c1c2[C@@H](NC(=O)CO)CC3", "note": "[Dxd, reference compound]", "values": [
      {"measurement": "tolerability", "setting": "[1]", "value": "well tolerated"}
    ]},
    {"compound": "Adcetris", "values": [
      {"measurement": "ADC cyno t112", "setting": "[4]", "value": "45 to 72", "unit": "h"}
    ]},
    {"compound": "Trastuzumab-Mal-GGFG-Dxd", "values": [
      {"measurement": "fragment found", "setting": "[5]", "value": "DXd, minor, 0 min; also recorded: exatecan, minor"},
      {"measurement": "fragment found", "setting": "[6]; Cynomolgus monkey", "value": "DXd, minor, 0 min; also recorded: Cys-Mc-GGFG-DXd; also recorded: exatecan, minor"},
      {"measurement": "fragment found", "setting": "[6]; Human", "value": "DXd, 0 min; also recorded: Cys-Mc-GGFG-DXd; also recorded: exatecan, minor"}
    ]},
    {"compound": "1-(3-(2,5-Dioxo-2,5-dihydro-1H-pyrrol-1-yl)propanamido)-N-((2S)-1-(((2S)-1-(((1S,9S)-9-ethyl-5-fluoro-9-hydroxy-4-methyl-10,13-dioxo-2,3,9,10,12,13,13a,14-octahydro-1H-benzo[de]pyrano[″,″:5,6]indeno[1,2-b]quinolin-1-yl)amino)-1-oxopropan-2-yl)amino)-3-methyl-1-oxobutan-2-yl)-3,6,9,12,15,18,21,24-octaoxaheptacosan-27-amide", "values": [
      {"measurement": "fragment found", "setting": "Papain", "value": "Val-Ala-Exatecan"},
      {"measurement": "not cleaved", "setting": "Papain", "value": "the free payload was not liberated"}
    ]}
  ]
}
